Source: US7199131B2, “Sulfonamide and sulfamide substituted imidazoquinolines” (3M Innovative Properties Company, priority 2001, dated 2007)

Tests used:
[1] = system: tumor necrosis factor (α); assay: Cytokine Induction in Human Cells: tumor necrosis factor (α) secreted by PBMCs, ELISA; assay type: cell-based; details: PBMC, incubated 18 to 24 hours, lowest concentration found to induce tumor necrosis factor
Text: (§1) An in vitro human blood cell system was used to assess cytokine induction by compounds of the invention. Activity is based on the measurement of interferon and tumor necrosis factor (α) (IFN and TNF, respectively) secreted into culture media as described by Testerman et. al. In “Cytokine Induction by the Immunomodulators Imiquimod and S-27609”, Journal of Leukocyte Biology, 58, 365–372 (September, 1995).
(§2) Whole blood is collected by venipuncture into EDTA vacutainer tubes from healthy human donors. Peripheral blood mononuclear cells (PBMCs) are separated from whole blood by density gradient centrifugation using Histopaque®-1077 (Sigma Chemicals, St. Louis, Mo.). The PBMCs are suspended at 3–4×10^6 cells/mL in RPMI 1640 medium containing 10% fetal bovine serum, 2 mM L-glutamine and 1% penicillin/streptomycin solution (RPMI complete). The PBMC suspension is added to 48 well flat bottom sterile tissue culture plates (Costar, Cambridge, Mass. or Becton Dickinson Labware, Lincoln Park, N.J.) containing an equal volume of RPMI complete media containing test compound.
(§3) The compounds are solubilized in dimethyl sulfoxide (DMSO). The DMSO concentration should not exceed a final concentration of 1% for addition to the culture wells.
(§4) The solution of test compound is added at 60 μM to the first well containing RPMI complete and serial (three fold or ten fold) dilutions are made. The PBMC suspension is then added to the wells in an equal volume, bringing the test compound concentrations to the desired range. The final concentration of PBMC suspension is 1.5–2×10^6 cells/mL. The plates are covered with sterile plastic lids, mixed gently and then incubated for 18 to 24 hours at 37° C. in a 5% carbon dioxide atmosphere.
(§5) Following incubation the plates are centrifuged for 5–10 minutes at 1000 rpm (˜200×g) at 4° C. The cell culture supernatant is removed with a sterile polypropylene pipette and transferred to sterile polypropylene tubes. Samples are maintained at −30 to −70° C. until analysis. The samples are analyzed for interferon (α) and tumor necrosis factor (α) by ELISA
Tumor necrosis factor (α) (TNF) concentration is determined using ELISA kits available from Genzyme, Cambridge, Mass.; R&D Systems, Minneapolis, Minn.; or Pharmingen, San Diego, Calif.
(§6) The table below lists the lowest concentration found to induce interferon and the lowest concentration found to induce tumor necrosis factor for each compound.

[2] = system: interferon (α); assay: Cytokine Induction in Human Cells: interferon (α) secreted by PBMCs, ELISA; assay type: cell-based; details: PBMC, incubated 18 to 24 hours, lowest concentration found to induce interferon
Text: as §1, §2, §3, §4, §5
Interferon (α) concentration is determined by ELISA using a Human Multi-Species kit from PBL Biomedical Laboratories, New Brunswick, N.J.
as §6

melting point [°C]	Structure (SMILES)	minimal effective concentration [1] [µM]	minimal effective concentration [2] [µM]
210 to 215	COCCc1nc2c(N)nc3ccccc3c2n1CCCNS(=O)(=O)c1cccc2c(N(C)C)cccc12 [Example 257, N-{3-[4-amino-2-(2-methoxyethyl)-1H-imidazo[4,5-c]quinolin-1-yl]propyl}-5-(dimethylamino)naphthalene-1-sulfonamide]	3.33	1.11
236 to 238	Cc1nc2c(N)nc3ccccc3c2n1CCCNS(C)(=O)=O [Example 258, N-[3-(4-amino-2-methyl-1H-imidazo[4,5-c]quinolin-1-yl)propyl]methanesulfonamide]	10	0.37
150 to 152	COCCc1nc2c(N)nc3c(c2n1CCCNS(C)(=O)=O)CCCC3 [Example 259, N-{3-[4-amino-2-(2-methoxyethyl)-6,7,8,9-tetrahydro-1H-imidazo[4,5-c]quinolin-1-yl]propyl}methanesulfonamide]	10	0.01
212 to 214	CCOCc1nc2c(N)nc3c(c2n1CCCNS(C)(=O)=O)CCCC3 [Example 260, N-{3-[4-amino-2-(ethoxymethyl)-6,7,8,9-tetrahydro-1H-imidazo[4,5-c]quinolin-1-yl]propyl}methanesulfonamide]	0.37	0.01
176 to 178	CS(=O)(=O)NCCCn1c(CCCOc2ccccc2)nc2c(N)nc3ccccc3c21 [Example 261, N-{3-[4-amino-2-(3-phenoxypropyl)-1H-imidazo[4,5-c]quinolin-1-yl]propyl}methanesulfonamide]	10	> 30
156.4 to 157.1	CS(=O)(=O)NCCCCn1c(CCCOc2ccccc2)nc2c(N)nc3ccccc3c21 [Example 262, N-{4-[4-amino-2-(3-phenoxypropyl)-1H-imidazo[4,5-c]quinolin-1-yl]butyl}methanesulfonamide]	10	> 30
187 to 188	CCCCc1nc2c(N)nc3ccccc3c2n1CCNS(=O)(=O)c1ccc(C)cc1 [Example 264, N-[2-(4-amino-2-butyl-1H-imidazo[4,5-c]quinolin-1-yl)ethyl]-4-methylbenzenesulfonamide]	1.11	1.11
210 to 211	CCCCc1nc2c(N)nc3ccccc3c2n1CCNS(C)(=O)=O [Example 265, N-[2-(4-amino-2-butyl-1H-imidazo[4,5-c]quinolin-1-yl)ethyl]methanesulfonamide]	0.04	0.01
173 to 176	CCCCc1nc2c(N)nc3ccccc3c2n1CCCCN1CCCS1(=O)=O [Example 267, 2-butyl-1-[4-(1,1-dioxidoisothiazolidin-2-yl)butyl]-1H-imidazo[4,5-c]quinolin-4-amine]	0.12	0.01
